Literature values as cited in patent US20220409609A1, “INJECTABLE FORMULATION OF HYDROXYCHLOROQUINE” (Luckwel Pharmaceuticals Inc., priority 2021, published 2022).
Structures can show the parent of a compound that is named as a salt.

Legend:
[1] = water at 25° C.

CCN(CCO)CCCC(C)Nc1ccnc2cc(Cl)ccc12 (racemic) [Hydroxychloroquine sulfate, 2-[[4-[(7-Chloro-4-quinolyl)amino]pentyl]ethylamino] ethanol sulfate (1:1)]
time at which hydroxychloroquine concentrations peak after dosing: 3 to 4 h | solubility in water [1]: freely soluble
